Columns and labels:
[1] = tested on: Mycobacterium tuberculosis Erdman (autoluminescent); assay: AUC25, normalised area under dose response up to IC25 (fraction (0-1)); higher = more potent at low dose
Experimental: (§1)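 DiaMOND equipotent two-drug combination dose responses against autoluminescent M. tuberculosis Erdman in 8 in vitro models. Read-out is OD600, or luminescence for the intracellular and dormancy models, normalised to untreated wells. Hill-fit Einf, AUC25 and GRinf are potency metrics; FIC50 and FIC90 are Loewe-additivity fractional inhibitory concentrations, given as log2 (negative = synergy). Replicates are averaged.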

[2] = tested on: Mycobacterium tuberculosis Erdman (autoluminescent); assay: FIC50 (Loewe) at 50% inhibition (log2); higher = more antagonistic
Experimental: as §1

[3] = tested on: Mycobacterium tuberculosis Erdman (autoluminescent); assay: GRinf, maximum normalised growth rate inhibition (unitless (-1 to 1)); higher = less effect (negative = killing)
Experimental: as §1

[4] = tested on: Mycobacterium tuberculosis Erdman (autoluminescent); assay: Einf, fitted maximum growth inhibition of combination (fraction); higher = stronger maximal inhibition
Experimental: as §1

[5] = tested on: Mycobacterium tuberculosis Erdman (autoluminescent); assay: FIC90 (Loewe) at 90% inhibition (log2); higher = more antagonistic
Experimental: as §1

COc1nc2ccc(Br)cc2cc1[C@@H](c1ccccc1)[C@@](O)(CCN(C)C)c1cccc2ccccc12 [bedaquiline] + CC(=O)NC[C@H]1CN(c2ccc(N3CCOCC3)c(F)c2)C(=O)O1 [linezolid]
Conditions | AUC25, [1] | Einf, [4] | FIC50, [2] | FIC90, [5] | GRinf, [3]
in vitro model: acidic pH 5.7, time point: constant (~7 days, model-specific) | 0.0967 | 0.859 | -0.0767 | – | -0.481
in vitro model: acidic pH 5.7, time point: terminal (~4-5 doublings, model-specific) | 0.0907 | 0.973 | 0.322 | 0.271 | -0.338
in vitro model: intracellular J774, time point: constant = terminal | – | 0.779 | – | – | 0.0692

Conditions | AUC25, [1] | Einf, [4] | FIC50, [2] | FIC90, [5] | GRinf, [3]
in vitro model: butyrate, time point: constant (~7 days, model-specific) | 0.0836 | 0.935 | 0.413 | -0.0357 | -0.0894
in vitro model: butyrate, time point: terminal (~4-5 doublings, model-specific) | 0.0548 | 0.955 | 0.268 | 0.0422 | -0.102
in vitro model: cholesterol 0.05 mM, time point: constant (~7 days, model-specific) | 0.153 | 0.803 | 0.123 | – | -0.345
in vitro model: cholesterol 0.05 mM, time point: terminal (~4-5 doublings, model-specific) | 0.147 | 0.945 | -0.0301 | 1.01 | -0.326
in vitro model: cholesterol-high 0.2 mM, time point: constant (~7 days, model-specific) | 0.12 | 0.99 | -0.127 | 0.76 | -0.87
in vitro model: cholesterol-high 0.2 mM, time point: terminal (~4-5 doublings, model-specific) | 0.121 | 1 | -0.334 | 0.414 | -0.851
in vitro model: dormancy (butyrate + nitrate, low O2), time point: constant (~7 days, model-specific) | 0.0774 | 0.933 | 0.344 | 0.554 | 0.113
in vitro model: dormancy (butyrate + nitrate, low O2), time point: terminal (~4-5 doublings, model-specific) | 0.0484 | 0.984 | 0.546 | 0.263 | -0.0845
in vitro model: standard 7H9 glycerol, time point: constant = terminal | 0.0721 | 0.961 | 0.142 | 0.0991 | -0.106
in vitro model: valerate, time point: constant (~7 days, model-specific) | 0.104 | 0.901 | 1.02 | 1.36 | -0.0681
in vitro model: valerate, time point: terminal (~4-5 doublings, model-specific) | 0.067 | 0.947 | 0.743 | 0.916 | -0.0615

COc1nc2ccc(Br)cc2cc1[C@@H](c1ccccc1)[C@@](O)(CCN(C)C)c1cccc2ccccc12 [bedaquiline] + CC(C)/N=c1\cc2n(-c3ccc(Cl)cc3)c3ccccc3nc-2cc1Nc1ccc(Cl)cc1 [clofazimine]
Conditions | AUC25, [1] | Einf, [4] | FIC50, [2] | FIC90, [5] | GRinf, [3]
in vitro model: acidic pH 5.7, time point: constant (~7 days, model-specific) | 0.105 | 0.853 | 0.214 | – | -0.265
in vitro model: acidic pH 5.7, time point: terminal (~4-5 doublings, model-specific) | 0.102 | 0.986 | -0.0261 | 0.282 | -0.322
in vitro model: intracellular J774, time point: constant = terminal | – | 0.986 | – | -0.499 | -0.483

Conditions | AUC25, [1] | Einf, [4] | FIC50, [2] | FIC90, [5] | GRinf, [3]
in vitro model: butyrate, time point: constant (~7 days, model-specific) | 0.0673 | 0.946 | -0.498 | -0.794 | -0.0975
in vitro model: butyrate, time point: terminal (~4-5 doublings, model-specific) | 0.0515 | 0.979 | -0.353 | -0.858 | -0.101
in vitro model: cholesterol 0.05 mM, time point: constant (~7 days, model-specific) | 0.0912 | 0.741 | -0.628 | – | -0.147
in vitro model: cholesterol 0.05 mM, time point: terminal (~4-5 doublings, model-specific) | 0.0989 | 0.945 | 0.39 | 0.028 | -0.224
in vitro model: cholesterol-high 0.2 mM, time point: constant (~7 days, model-specific) | 0.0661 | 0.946 | -0.437 | -0.58 | -0.413
in vitro model: cholesterol-high 0.2 mM, time point: terminal (~4-5 doublings, model-specific) | 0.0725 | 0.997 | 0.0406 | -0.388 | -0.62
in vitro model: dormancy (butyrate + nitrate, low O2), time point: constant (~7 days, model-specific) | 0.0657 | 0.905 | -0.281 | -0.778 | 0.168
in vitro model: dormancy (butyrate + nitrate, low O2), time point: terminal (~4-5 doublings, model-specific) | 0.067 | 0.988 | -0.558 | -0.863 | -0.267
in vitro model: standard 7H9 glycerol, time point: constant = terminal | 0.0822 | 0.974 | -0.132 | -0.648 | -0.119
in vitro model: valerate, time point: constant (~7 days, model-specific) | 0.112 | 0.94 | -0.453 | -1.82 | -0.151
in vitro model: valerate, time point: terminal (~4-5 doublings, model-specific) | 0.0649 | 0.956 | 0.0093 | -0.0427 | -0.0795

— the supplement of paper PMC8617591
